Measurements reported in patent US9682033B2, “Methods of treating postherpetic neuralgia with a topical formulation of a spiro-oxindole compound” (Teva Pharmaceuticals International GmbH, priority 2015, dated 2017).

Tests used:
CYP3A4 = CYP3A4 (Homo sapiens, UniProt P08684); assay: Drug-drug interaction study in healthy subjects: midazolam (CYP3A4 substrate) pharmacokinetics (Biological Example 5); conditions: for Tmax / AUC(0-inf) / AUC(0-t) / Cmax: both, human, in vivo; for AUC(0-inf) / AUC(0-t) / Cmax: 3 mg
Sequence of CYP3A4 (P08684 whole entry): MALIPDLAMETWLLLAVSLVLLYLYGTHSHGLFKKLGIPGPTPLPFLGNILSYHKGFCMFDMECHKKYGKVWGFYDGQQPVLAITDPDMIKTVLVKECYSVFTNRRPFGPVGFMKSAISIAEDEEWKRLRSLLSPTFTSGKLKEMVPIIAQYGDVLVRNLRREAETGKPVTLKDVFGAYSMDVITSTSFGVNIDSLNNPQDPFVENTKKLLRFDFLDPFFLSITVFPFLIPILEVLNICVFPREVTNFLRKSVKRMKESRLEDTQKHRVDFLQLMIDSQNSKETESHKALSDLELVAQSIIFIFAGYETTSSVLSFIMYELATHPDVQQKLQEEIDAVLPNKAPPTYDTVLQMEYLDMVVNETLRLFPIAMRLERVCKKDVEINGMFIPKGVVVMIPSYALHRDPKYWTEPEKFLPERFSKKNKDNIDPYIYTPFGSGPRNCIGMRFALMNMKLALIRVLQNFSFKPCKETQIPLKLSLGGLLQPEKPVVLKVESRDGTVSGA
Source text: (§1) This was a single center, open-label, 1-sequence drug-drug interaction study in 32 healthy adult male and female subjects. The study consisted of a 28-day screening period, a 10-day inpatient treatment period, and a follow-up visit. Subjects meeting the study inclusion/exclusion requirements were admitted to the clinical research unit on day −1 and were confined until day 10.
(§2) Blood samples were collected for the assessment of the pharmacokinetics of midazolam and omeprazole.
(§3) The primary pharmacokinetic endpoints were the geometric mean ratios (90% confidence intervals [CIs]) for Cmax, AUC0-t, and AUC0-inf for midazolam and omeprazole on day 9 versus day 1.
(§4) Blood samples were collected for the assessment of the pharmacokinetics of the major metabolites of midazolam (1-OH-midazolam) and omeprazole (5-OH-omeprazole), and for the spiro-oxindole compound. Further secondary pharmacokinetic variables included Cmax, tmax, AUC0-t, AUC0-inf, CL/F, λz, t1/2, and % AUCext for 1-OH-midazolam and 5-OH-omeprazole, on days 1 and 9, and Cmax, morning predose concentrations (Ctrough), average plasma concentration over the dosing interval (Cave), and area under the plasma concentration-time curve over the dosing interval (AUC0-τ) were presented for the spiro-oxindole compound.
(§5) Descriptive statistics (n, mean, geometric mean, standard deviation [SD], % CV, median, minimum, and maximum) were used to summarize plasma midazolam, omeprazole and their metabolites, and the spiro-oxindole compound concentration for all subjects overall at each scheduled time point. Descriptive statistics (as noted above) were also used to summarize plasma omeprazole, 5-OH-omeprazole, and the spiro-oxindole compound concentration for all subjects overall by CYP2C19 genotype at each scheduled time point. Pharmacokinetic parameters were derived by noncompartmental analysis. Descriptive statistics (as noted above) were used to summarize the calculated pharmacokinetic parameters for midazolam, omeprazole and their metabolites, and the spiro-oxindole compound by treatment for all subjects. Descriptive statistics (as noted above) were also used to summarize the calculated pharmacokinetic parameters for omeprazole, 5-OH-omeprazole, and the spiro-oxindole compound by treatment and CYP2C19 genotype. Plots of geometric mean and individual plasma concentrations and of select pharmacokinetic parameters for midazolam, omeprazole and their metabolites and the spiro-oxindole compound at select sampling times were provided. Additionally, plots of individual select pharmacokinetic parameters by CYP2C19 phenotype for omeprazole at select time points were provided.

[1] = tested on: streptozotocin-induced neuropathic pain model; assay: Streptozotocin-induced neuropathic pain model, mechanical allodynia (paw withdrawal threshold); type: in vivo, rats; conditions: rats, topical, 30 minutes after the dose
Source text: Topical 4% Test Pharmaceutical Composition was compared with lidocaine and diclofenac for relief of mechanical allodynia in the streptozotocin-induced neuropathic pain model in rats.

CYP2C19 = assay: clinical; conditions: both, human, in vivo, 20 mg
Source text: as §1, §2, §3, §4, §5

[2] = 1-OH metabolite after oral midazolam, day 1
[3] = 1-OH metabolite after oral midazolam, day 9

For `OCc1ncc2n1-c1ccc(Cl)cc1C(c1ccccc1F)=NC2` [1-OH-midazolam], the “tmax (median)” value (CYP3A4; 1-OH metabolite after oral midazolam, both days 1 and 9) was 0.75 h, the “AUC0-inf (geometric)” value (CYP3A4; [2]) was 16.83 ng·h/mL and the “AUC0-t (geometric)” value (CYP3A4; [2]) was 15.82 ng·h/mL. The “Cmax (geometric mean)” value (CYP3A4; [2]) was 7.33 ng/mL, the “t1/2 (geometric mean)” value (CYP3A4; [2]) was 4.39 h and the “AUC0-t (geometric)” value (CYP3A4; [3]) was 17.18 ng·h/mL. The “Cmax (geometric mean)” value (CYP3A4; [3]) was 6.67 ng/mL and the “t1/2 (geometric mean)” value (CYP3A4; [3]) was 4.68 h.
With `O=C(O)Cc1ccccc1Nc1c(Cl)cccc1Cl` [diclofenac] the “paw withdrawal threshold for the drug-treated paw (mechanical hyperalgesia)” value [1] was “no significant increase in threshold”.
In the case of `CCN(CC)CC(=O)Nc1c(C)cccc1C` [lidocaine], the “paw withdrawal threshold for the drug-treated paw (mechanical hyperalgesia)” value [1] is reported as “no significant increase in threshold”.
For `Cc1ncc2n1-c1ccc(Cl)cc1C(c1ccccc1F)=NC2` [midazolam, reference compound], the Tmax (CYP3A4) was 0.75 h, the AUC(0-inf) (CYP3A4) was 40.7 ng·h/mL and the AUC(0-t) (CYP3A4) was 39.4 ng·h/mL. It also gave a Cmax (CYP3A4) of 14.6 ng/mL, a Tmax (CYP3A4; po) of 0.63 h and an AUC(0-inf) (CYP3A4; po) of 43.8 ng·h/mL. It also gave an AUC(0-t) (CYP3A4; po) of 42.2 ng·h/mL and a Cmax (CYP3A4; po) of 16.9 ng/mL.
In the case of `COc1ccc2[nH]c([S+]([O-])Cc3ncc(C)c(OC)c3C)nc2c1` (centres unmarked) [omeprazole], the Tmax (CYP2C19) is reported as 2.5 h, the “AUC0-inf (geometric mean)” value (CYP2C19; po) is reported as 633.97 ng·h/mL and the “AUC0-t (geometric mean)” value (CYP2C19; po) is reported as 556.16 ng·h/mL. The “Cmax (geometric mean)” value (CYP2C19; po) was 227.04 ng/mL, the Tmax (CYP2C19; po) was 2 h and the AUC(0-inf) (CYP2C19; po, AUC0-inf (geometric mean)) was 635 ng·h/mL. The AUC(0-t) (CYP2C19; po, AUC0-t (geometric mean)) was 545 ng·h/mL and the Cmax (CYP2C19; po, Cmax (geometric mean)) was 227 ng/mL.
